Results from ChEMBL document CHEMBL1131344, “The synthesis of novel matrix metalloproteinase inhibitors employing the Ireland-Claisen rearrangement” (Bioorg Med Chem Lett, 1998).

Columns and labels:
[1] = target: T1, Interstitial collagenase (Homo sapiens) (UniProt P03956); test: Inhibition of matrix metalloprotease-1 (HFC)
T1 sequence (whole entry): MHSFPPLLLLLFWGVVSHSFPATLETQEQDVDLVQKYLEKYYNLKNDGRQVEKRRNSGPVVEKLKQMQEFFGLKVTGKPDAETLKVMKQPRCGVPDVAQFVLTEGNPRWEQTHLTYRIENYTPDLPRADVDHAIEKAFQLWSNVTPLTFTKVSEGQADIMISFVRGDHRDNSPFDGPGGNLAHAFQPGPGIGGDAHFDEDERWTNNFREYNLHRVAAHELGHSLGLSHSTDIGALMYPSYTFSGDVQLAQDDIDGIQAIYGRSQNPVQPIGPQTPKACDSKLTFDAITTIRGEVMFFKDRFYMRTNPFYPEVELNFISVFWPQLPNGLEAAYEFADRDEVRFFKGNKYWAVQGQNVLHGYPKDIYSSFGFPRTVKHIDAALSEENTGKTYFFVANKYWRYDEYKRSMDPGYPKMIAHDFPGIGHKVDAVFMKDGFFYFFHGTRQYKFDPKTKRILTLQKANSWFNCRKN

[2] = target: T2, Matrilysin (Homo sapiens) (UniProt P09237); test: Inhibition of matrix metalloprotease-7 (Matrilysin)
T2 sequence (whole entry): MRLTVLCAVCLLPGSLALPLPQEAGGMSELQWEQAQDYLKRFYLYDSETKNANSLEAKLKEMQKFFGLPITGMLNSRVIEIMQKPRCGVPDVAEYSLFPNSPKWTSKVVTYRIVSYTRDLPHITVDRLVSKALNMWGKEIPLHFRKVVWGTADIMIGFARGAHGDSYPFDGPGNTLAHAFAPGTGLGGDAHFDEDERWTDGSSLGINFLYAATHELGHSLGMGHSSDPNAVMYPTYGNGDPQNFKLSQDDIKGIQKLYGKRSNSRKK

[3] = Maximum concentration value was evaluated for high sustained blood levels in rat after 30 min of administration; format: ADME, organism-based
Rattus norvegicus [4] = species on record: Rattus norvegicus; test: Compound was tested for area under curve in rat; format: ADME, organism-based; design: concentration or dose not given beside the values; conditions: in vivo
[5] = target: Stromelysin-1 (Homo sapiens) (UniProt P08254); test: Inhibition of matrix metalloprotease-3 (Stromelysin-1)
[6] = target: 72 kDa type IV collagenase (Homo sapiens) (UniProt P08253); test: Inhibition of matrix metalloprotease-2 (Gel.A)
Rattus norvegicus [7] = test: Compound was tested for inhibition of Tumor Necrosis Factor production in rat at a peroral dose of 10 mg/kg; format: functional; conditions: route oral
Rattus norvegicus [8] = test: Compound was tested for inhibition of Tumor Necrosis Factor production in rat at a peroral dose of 5 mg/kg; format: functional; conditions: route oral
Rattus norvegicus [9] = test: Compound was tested for inhibition of Tumor Necrosis Factor production in rat at a peroral dose of 2.5 mg/kg; format: functional; conditions: route oral
[10] = Maximum concentration value was evaluated for high sustained blood levels in rat after 2 hr of administration; format: ADME, organism-based
[11] = Maximum concentration value was evaluated for high sustained blood levels in rat after 1 hr of administration; format: ADME, organism-based

Sequence of Stromelysin-1 (Homo sapiens) (P08254 100-477 limits assumed): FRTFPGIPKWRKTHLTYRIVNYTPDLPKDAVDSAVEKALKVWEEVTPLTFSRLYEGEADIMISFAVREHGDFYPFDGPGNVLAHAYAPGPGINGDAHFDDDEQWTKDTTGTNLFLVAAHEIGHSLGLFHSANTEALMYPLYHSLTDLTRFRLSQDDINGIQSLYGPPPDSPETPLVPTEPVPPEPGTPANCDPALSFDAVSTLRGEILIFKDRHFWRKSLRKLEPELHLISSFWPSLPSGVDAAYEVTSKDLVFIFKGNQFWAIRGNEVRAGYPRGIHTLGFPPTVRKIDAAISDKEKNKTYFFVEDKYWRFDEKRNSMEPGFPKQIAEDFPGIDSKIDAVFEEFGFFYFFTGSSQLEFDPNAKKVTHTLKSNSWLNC
Sequence of 72 kDa type IV collagenase (Homo sapiens) (P08253 110-660 limits assumed): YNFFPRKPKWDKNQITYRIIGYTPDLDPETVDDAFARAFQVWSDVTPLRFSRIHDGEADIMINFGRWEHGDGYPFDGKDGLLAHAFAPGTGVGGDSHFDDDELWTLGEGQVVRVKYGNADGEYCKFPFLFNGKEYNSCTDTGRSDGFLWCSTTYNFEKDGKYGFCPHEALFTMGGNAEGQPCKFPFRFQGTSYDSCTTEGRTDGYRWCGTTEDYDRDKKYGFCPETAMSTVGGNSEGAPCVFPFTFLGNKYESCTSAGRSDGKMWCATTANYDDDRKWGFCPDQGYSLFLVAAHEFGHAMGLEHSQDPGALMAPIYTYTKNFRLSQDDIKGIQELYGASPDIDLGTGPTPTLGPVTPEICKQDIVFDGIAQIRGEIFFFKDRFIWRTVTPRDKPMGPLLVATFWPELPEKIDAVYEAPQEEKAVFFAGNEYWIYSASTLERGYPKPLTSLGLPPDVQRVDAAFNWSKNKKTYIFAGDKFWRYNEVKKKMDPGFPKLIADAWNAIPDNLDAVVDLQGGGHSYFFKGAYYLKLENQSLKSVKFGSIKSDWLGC

In the case of `CNC(=O)[C@@H](NC(=O)[C@H](CC(C)C)[C@@H](C(=O)NO)C(C)C)C(C)(C)C`, the Activity [1] is reported as 1 nM, the Activity [2] is reported as 5 nM and the Cmax [3] is reported as 376 ng/mL. It also gave an AUC (Rattus norvegicus [4]) of 895 ng·h/mL, an Activity [5] of 40 nM and an Activity [6] of 1 nM.

With `CNC(=O)[C@@H](NC(=O)C(CC(C)C)C(O)C(=O)NO)C(C)(C)C` (single isomer, unassigned) the Activity [1] was 5 nM, the Activity [2] was 20 nM and the inhibition in vivo at 10 mg/kg (Rattus norvegicus [7]) was 69%. It also gave an inhibition in vivo at 5 mg/kg (Rattus norvegicus [8]) of 50%, an inhibition in vivo at 2.5 mg/kg (Rattus norvegicus [9]) of 11% and an Activity [5] of 200 nM. The Activity [6] was 6 nM.

With `CNC(=O)[C@@H](NC(=O)C(CC(C)C)C(C(=O)NO)C1CC1)C(C)(C)C` (single isomer, unassigned) the Activity [1] was 20 nM, the Activity [2] was 200 nM and the Cmax [3] was 106 ng/mL. The AUC (Rattus norvegicus [4]) was 1020 ng·h/mL, the Activity [5] was 300 nM and the Activity [6] was 100 nM.

With `CC(C)CC(C(=O)N[C@H](C(=O)Nc1ccccn1)C(C)(C)C)C(C(=O)NO)C1CCCC1` (single isomer, unassigned; 12j) [listing 1 of 2 here] the Activity [1] was 3 nM, the Activity [2] was 3 nM and the Activity [5] was 20 nM. For the same compound, the Activity [6] was 30 nM.

`CNC(=O)[C@@H](NC(=O)[C@H](CC(C)C)[C@@H](C(=O)NO)C1CCSC1)C(C)(C)C` (stereo not given in full) showed an Activity [1] of 5 nM, an Activity [2] of 4 nM and an Activity [5] of 40 nM. The Activity [6] was 5 nM.

Compound `CC(C)CC(C(=O)N[C@H](C(=O)Nc1ccccn1)C(C)(C)C)C(C(=O)NO)C1CCCC1` (single isomer, unassigned; 12j) [listing 2 of 2 here] has an AUC (Rattus norvegicus [4]) of 899 ng·h/mL and a Cmax [10] of 70.7 ng/mL.

Work on `CNC(=O)[C@@H](NC(=O)C(CC(C)C)C(C(=O)NO)C1CCC1)C(C)(C)C` (single isomer, unassigned) yielded an Activity [1] of 3 nM, an Activity [2] of 20 nM and an Activity [5] of 50 nM. The Activity [6] was 2 nM.

Work on `CNC(=O)[C@@H](NC(=O)[C@H](CC(C)C)[C@@H](C(=O)NO)C1CCN(C)CC1)C(C)(C)C` yielded an Activity [1] of 30 nM, an Activity [2] of 200 nM and an Activity [5] of 500 nM. The Activity [6] was 3 nM.

In the case of `CC(C)CC(C(=O)N[C@H](C(=O)Nc1ccccn1)C(C)(C)C)C(C(=O)NO)C1CCCC1` (single isomer, unassigned; 12m), the Activity [1] is reported as 20 nM, the Activity [5] is reported as 50 nM and the Activity [6] is reported as 100 nM.

In the case of `CC(C)C[C@@H](C(=O)N[C@H](C(=O)Nc1ccccn1)C(C)(C)C)[C@@H](C(=O)NO)C1CCC(C)CC1` (stereo not given in full), the Activity [1] is reported as 5 nM, the Activity [2] is reported as 3 nM and the Activity [5] is reported as 20 nM. For the same compound, the Activity [6] was 40 nM.

Work on `CNC(=O)[C@@H](NC(=O)C(CC(C)C)C(C(=O)NO)C1CCC(C(C)(C)C)CC1)C(C)(C)C` (single isomer, unassigned) yielded an Activity [1] of 40 nM, an Activity [2] of 50 nM and an Activity [5] of 100 nM. It also gave an Activity [6] of 30 nM.

Work on `CNC(=O)[C@@H](NC(=O)[C@H](CC(C)C)[C@@H](C(=O)NO)C1CCC(C)CC1)C(C)(C)C` (stereo not given in full) yielded an Activity [1] of 4 nM, an Activity [2] of 7 nM and an Activity [5] of 40 nM. It also gave an Activity [6] of 9 nM.

For `CC(C)CC(C(=O)N[C@H](C(=O)Nc1ccccn1)C(C)(C)C)C(C(=O)NO)C1CCCCC1` (single isomer, unassigned), the Activity [1] was 4 nM, the Activity [5] was 20 nM and the Activity [6] was 10 nM.

Compound `CNC(=O)[C@@H](NC(=O)C(CC(C)C)C(C(=O)NO)C1CCCCC1)C(C)(C)C` (single isomer, unassigned) has an Activity [1] of 4 nM, an Activity [2] of 20 nM and an AUC (Rattus norvegicus [4]) of 155 ng·h/mL. It also gave a Cmax [10] of 9.75 ng/mL, an Activity [5] of 30 nM and an Activity [6] of 10 nM.

With `CNC(=O)[C@@H](NC(=O)C(CC(C)C)C(C(=O)NO)C1CCCC1)C(C)(C)C` (single isomer, unassigned) the Activity [1] was 4 nM, the Activity [2] was 20 nM and the inhibition in vivo at 10 mg/kg (Rattus norvegicus [7]) was 98%. For the same compound, the AUC (Rattus norvegicus [4]) was 2090 ng·h/mL, the inhibition in vivo at 5 mg/kg (Rattus norvegicus [8]) was 92% and the inhibition in vivo at 2.5 mg/kg (Rattus norvegicus [9]) was 94%. It also gave an Activity [5] of 30 nM, a Cmax [11] of 336 ng/mL and an Activity [6] of 3 nM.
